Laboratory results: US9248187B2, “Oxadiazole inhibitors of leukotriene production for combination therapy” (Boehringer Ingelheim International GmbH, priority 2012, dated 2016)
Several values for one entry are separate records, joined by “and”; a condition that tells them apart may be missing. Equal values may be shown once.

Assays:
[1] = test system: atherosclerotic plaque in the descending aorta; assay: 13 week HF/HC diet rabbit model of atherosclerosis, on top of simvastatin; format: in vivo, NZW rabbits; details: compound 115 2.5 mg/kg and simvastatin 2.5 mg/kg; p=0.05
Description: The objective of the study is to determine if the compounds of Formula I provide additional reduction in atherosclerosis development in high fat/high cholesterol (HF/HC) fed rabbits on top of simvastatin compared to simvastatin alone. Treatment with a statin is considered the standard of care for atherosclerosis clinically. In order to determine if the anti-atherosclerotic effect observed in rabbits is effective on top of statin treatment, rabbits were treated with compound 115 (Table 1) in combination with simvastatin and the effects on atherosclerosis reduction with both control and statin treatment alone were compared. […] The rabbits were fed 125 g of rabbit chow each day and both food consumption and body weights were measured throughout the study period. […] The extent of atherosclerosis development was measured in the descending aorta after the vessels were pinned out on the silicone surface of metal trays and stained with Sunan IV stain. […] The percentage of plaque area of the descending aorta was determined. […] Atherosclerotic lesion formation was quantified by image analysis software using ImagePro Plus software. The mean of thee different sections 100 μm apart was determined. The mean value of each parameter was calculated for each different treatment group and compared to the control value. […]

[2] = molecular target: T1, recombinant human FLAP protein (Homo sapiens, UniProt P20292); assay: FLAP binding assay (SPA, displacement of [125I]L-691,831); details: @1000 nM
T1 construct: made in house; host or cells: Sf9 insect cells (membrane fraction, 100,000 x g pellet)
T1 sequence (P20292 1-161): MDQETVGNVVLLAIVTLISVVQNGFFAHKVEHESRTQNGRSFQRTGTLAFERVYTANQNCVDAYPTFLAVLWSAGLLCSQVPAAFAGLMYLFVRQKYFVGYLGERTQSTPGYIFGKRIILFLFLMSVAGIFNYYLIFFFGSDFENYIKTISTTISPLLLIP
Description: Assessment of Biological Properties 1. Binding Assay
Cell pellets produced from sf9 insect cells expressing recombinant human FLAP protein are resuspended in buffer A [15 mM Tris-HCl (pH 7.5), 2 mM MgCl2, 0.3 mM EDTA, 1 mM PMSF]. The cells are lysed with a Dounce homogenizer and the material is centrifuged at 10,000×g for 10 minutes. The supernatant is then collected and centrifuged at 100,000×g for 60 minutes. To prepare membrane protein for an assay, an aliquot of the 100,000×g pellet is resuspended in 1 ml of buffer A, Dounce homogenized, and finally subjected to polytron mixing (30 seconds). Membrane protein (25 μl, 5 μg) is mixed with WGA SPA beads (Amersham) and stirred for 1 h.

[3] = test system: proteinuria; details: clinical trial, human glomerulonephritis; cited from earlier work

CN(C)C(=O)Cn1cc(-c2nc([C@@](C)(c3ccc(-c4cnc(N)nc4)cc3)C3CC3)no2)cn1 (single isomer, unassigned) [Example 115]
further reduction in plaque area compared to simvastatin alone [1]: 32% and 34%

CC(C)C(C)(c1ccc(-c2cnc(N)nc2)cc1)c1noc(O)n1 (stereo not drawn) [Example 88, 3-{1-[4-(2-Amino-pyrimidin-5-yl)-phenyl]-1,2-dimethyl-propyl}-[1,2,4]oxadiazol-5-ol]
FLAP binding % inh [2]: 51% inh@1000 nM

CC(C)(C)Sc1c(CC(C)(C)C(=O)O)n(Cc2ccc(Cl)cc2)c2ccc(OCc3ccc4ccccc4n3)cc12 [MK-591]
effect on proteinuria [3]: reduce proteinuria
